From BindingDB's records for doi:10.1021/acs.jmedchem.7b00901 (University of South Australia, 2018)

Target: Cyclin-dependent kinase inhibitor 1 (Homo sapiens, UniProt P38936)
Assay: Inhibition of p21 (unknown origin)-induced transcription in human HT1080 p21-9-CMV-GFP cells after 3 days by fluorescence assay

Chain of Cyclin-dependent kinase inhibitor 1 (P38936 whole entry): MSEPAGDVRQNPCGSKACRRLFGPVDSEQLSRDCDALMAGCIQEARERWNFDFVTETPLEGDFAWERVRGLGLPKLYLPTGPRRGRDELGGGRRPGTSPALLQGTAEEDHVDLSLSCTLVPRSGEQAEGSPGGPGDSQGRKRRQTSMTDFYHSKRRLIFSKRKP

N#Cc1ccc2ncnc(NCCc3ccccc3)c2c1
IC50: 640 nM
